In patent publication US20210333284A1, “METHODS AND MATERIALS FOR LARGE-SCALE ASSESSMENT OF LIGAND BINDING SELECTIVITY OF G-QUADRUPLEX RECOGNITION USING CUSTOM G4 MICROARRAYS” (Purdue Research Foundation, priority 2020, published 2021):

Columns and labels:
MYC_14/23T G4 = assay: G4 microarray competition with Cy5-PDS, MYC_14/23T; assay type: binding, human; details: MYC_14/23T G4, 1 μM BMVC and 1 μM Cy5-PDS
Experimental: Custom G4 microarrays have been designed that contain a total of 19,249 G4 DNA sequences [31, the entirety of disclosure of which, including the supplemental information, is incorporated herein by reference]. The G4 microarrays were created by covalently attaching thousands of unique G4-forming DNA 60-mers to a glass surface. Pyridostatin (PDS) is a known G4-interactive compound. […] To test the binding selectivity of BMVC, competition experiments using custom G4 microarrays were performed. The addition of potassium-containing solution to G4-forming oligonucleotides induced G4 formation. […] After washing to remove the unbound Cy5-PDS and BMVC, the fluorescence intensities of Cy5-PDS bound to DNA oligonucleotides were detected using a fluorescence scanner. The binding selectivity of BMVC to different G4 structures was assessed by measuring the relative fluorescence intensity reduction of Cy5-PDS as BMVC concentration increased.
To determine the G4-binding selectivity of BMVC, the BMVC binding to known G4 structures was examined, including 7 well-studied MYC promoter G4 sequences, 15 other oncogene promoter G4 sequences, and 3 human telomeric G4 sequences (TABLE 4). BMVC competes with the binding of Cy5-PDS to most G4 sequences in a dose-dependent manner as indicated by reduced fluorescence intensities (FIG. 8a). […]

MYC expression = details: human breast cancer cell line; cited from earlier work
[1] = test system: PDGF-A_Pu48, MYB, Bcl-2_P1G4 and Bcl2_55G G4 sequences; assay: G4 microarray competition with Cy5-PDS, other oncogene promoter G4s; assay type: binding, human
Experimental: Custom G4 microarrays have been designed that contain a total of 19,249 G4 DNA sequences [31, the entirety of disclosure of which, including the supplemental information, is incorporated herein by reference]. The G4 microarrays were created by covalently attaching thousands of unique G4-forming DNA 60-mers to a glass surface. Pyridostatin (PDS) is a known G4-interactive compound. […] To test the binding selectivity of BMVC, competition experiments using custom G4 microarrays were performed. The addition of potassium-containing solution to G4-forming oligonucleotides induced G4 formation. Subsequently, the microarrays were incubated with 1 μM Cy5-PDS in the absence or presence of 1 μM, 3 μM, or 10 μM of the unlabeled BMVC molecule. After washing to remove the unbound Cy5-PDS and BMVC, the fluorescence intensities of Cy5-PDS bound to DNA oligonucleotides were detected using a fluorescence scanner. The binding selectivity of BMVC to different G4 structures was assessed by measuring the relative fluorescence intensity reduction of Cy5-PDS as BMVC concentration increased.
To determine the G4-binding selectivity of BMVC, the BMVC binding to known G4 structures was examined, including 7 well-studied MYC promoter G4 sequences, 15 other oncogene promoter G4 sequences, and 3 human telomeric G4 sequences (TABLE 4). BMVC competes with the binding of Cy5-PDS to most G4 sequences in a dose-dependent manner as indicated by reduced fluorescence intensities (FIG. 8a).
DNA Microarray Binding Experiments DNA microarray experiments were performed and analyzed as described previously. Microarrays were preincubated with a pH 7.4 phosphate buffer solution with 100 mM potassium for 1 h at room temperature to induce G4 formation. […]
Data Processing and Analysis Molecule-bound microarrays were scanned with an Agilent G5761A SureScan Dx Microarray Scanner System to detect Cy5 signal at two laser settings (30 and 100 PMT). Spot intensities from microarray images were extracted using Agilent Feature Extraction Software and are reported as raw fluorescence intensities. […]

[2] = test system: genomic G4 sequences (folded G4 structures); assay: G4 microarray binding in potassium vs lithium; design: species or system human; details: GST-tagged proteins
Experimental: The binding specificities of several molecules were evaluated. Microarrays were preincubated with 100 mM potassium chloride to induce G4 formation. Binding of each molecule is measured by detection of fluorescence intensity at each of the microarray features. BG4 and pyridostatin were conjugated with Cy5. Cellular proteins were expressed as chimeric proteins containing GST, and binding for these proteins was detected using an anti-GST antibody conjugated with Cy5 (Materials and Methods). G4 Structures Fold on DNA Microarrays. To evaluate the utility of DNA microarrays to examine G4-binding specificity, a Cy5-labeled pyridostatin (Cy5-PDS), a small molecule known to bind broadly to G4 structures, was synthesized.^13 A Cy5 conjugated version of BG4 (Cy5-BG4), an antibody developed to bind G4s, was also obtained.^31 FIG. 1A, B presents replicate binding intensities to 15,491 DNA sequences on the Design 3 microarray using either Cy5-PDS or Cy5-BG4. For Cy5-PDS, robust binding is observed at 1 μM, with fluorescence intensities ranging over 100-fold between strongest and weakest bound DNA features. The fluorescence-binding intensities of Cy5-PDS are proportional to the concentration of pyridostatin used). […] Antibody binding to non-G4 features increases with higher concentrations, and in some cases non-G4 sequences are more strongly bound by Cy5-BG4 than G4 sequences, including multiple cytosine-rich negative control sequences. Inhibition of G4 Formation Inhibits Cy5-PDS and Cy5-BG4 Binding. Cy5-PDS and Cy5-BG4 binding under conditions that inhibit G4 formation was examined to evaluate if G4 structures form on the microarray and are required for binding. […] It is noted that many sequences, in addition to the oncogene G4 sequences, are capable of forming G4s. […] For Cy5-BG4, the decrease in binding was up to 270-fold for genomic G4 sequences, while binding to negative controls decreased up to 23-fold (FIG. 1D,). In a second experiment, Cy5-PDS binding following a primer extension reaction that produces dsDNA^24 was examined (see Materials and Methods), anticipating that dsDNA would predominate over G4 formation^13. […] 2,27,28
Microarrays were preincubated with a 100 mM potassium chloride solution for 1 h at RT to induce G4 formation. Protein binding microarray experiments were then performed as previously described.^23 Microarrays were blocked with 4% nonfat dry milk in a potassium phosphate buffer before incubation with proteins or small molecules. Expressed proteins were blocked with 4% nonfat dry milk, ssDNA, and BSA. For the validation experiments, microarrays were also treated with 100 mM lithium chloride to inhibit G4 formation. For experiments examining dsDNA, single-stranded DNA probes were made double-stranded using a primer complementary to a 24-mer constant sequence following the method described previously.^23,24 Double stranding efficiency was monitored using 4% Cy3-dCTP.
Protein or molecule-bound microarrays were scanned with the G5761A SureScan Dx Microarray Scanner System (Agilent) to detect a Cy5 signal at two laser settings (30 and 100 PMT) to ensure signal intensities were below saturation. Spot intensities from microarray images were extracted using the Agilent Feature Extraction Software and are reported as raw fluorescence units. All binding assays were performed at least twice, with high agreement between replicates (R>0.8). Microarrays with the fewest number of saturated spots were used for further analysis. Median intensity was then computed for probes containing identical sequence on each microarray. […]

C[n+]1ccc(/C=C/c2ccc3[nH]c4ccc(/C=C/c5cc[n+](C)cc5)cc4c3c2)cc1.[I-].[I-] [BMVC, 3,6-Bis(1-methyl-4-vinylpyridinium) carbazole diiodide]
reduction of Cy5-PDS binding among all parallel G4s (MYC_14/23T G4): largest reduction | effect on MYC expression (MYC expression): represses MYC expression | binding to Bcl2_55G ([1]; competition with Cy5-PDS): good binding | binding to Bcl-2_P1G4 ([1]; competition with Cy5-PDS, compared with Bcl2_55G): markedly weaker | binding to PDGF-A_Pu48 and MYB sequences relative to Cy5-PDS ([1]; equimolar competition): much weaker

B1: FANCJ: GST-tagged human BRCA1-binding helicase-like protein / Fanconi anemia group J protein (protein, listed as Homo sapiens)
chain: MSSMWSEYTIGGVKIYFPYKAYPSQLAMMNSILRGLNSKQHCLLESPTGSGKSLALLCSALAWQQSLSGKPADEGVSEKAEVQLSCCCACHSKDFTNNDMNQGTSRHFNYPSTPPSERNGTSSTCQDSPEKTTLAAKLSAKKQASIYRDENDDFQVEKKRIRPLETTQQIRKRHCFGTEVHNLDAKVDSGKTVKLNSPLEKINSFSPQKPPGHCSRCCCSTKQGNSQESSNTIKKDHTGKSKIPKIYFGTRTHKQIAQITRELRRTAYSGVPMTILSSRDHTCVHPEVVGNFNRNEKCMELLDGKNGKSCYFYHGVHKISDQHTLQTFQGMCKAWDIEELVSLGKKLKACPYYTARELIQDADIIFCPYNYLLDAQIRESMDLNLKEQVVILDEAHNIEDCARESASYSVTEVQLRFARDELDSMVNNNIRKKDHEPLRAVCCSLINWLEANAEYLVERDYESACKIWSGNEMLLTLHKMGITTATFPILQGHFSAVLQKEEKISPIYGKEEAREVPVISASTQIMLKGLFMVLDYLFRQNSRFADDYKIAIQQTYSWTNQIDISDKNGLLVLPKNKKRSRQKTAVHVLNFWCLNPAVAFSDINGKVQTIVLTSGTLSPMKSFSSELGVTFTIQLEANHIIKNSQVWVGTIGSGPKGRNLCATFQNTETFEFQDEVGALLLSVCQTVSQGILCFLPSYKLLEKLKERWLSTGLWHNLELVKTVIVEPQGGEKTNFDELLQVYYDAIKYKGEKDGALLVAVCRGKVSEGLDFSDDNARAVITIGIPFPNVKDLQVELKRQYNDHHSKLRGLLPGRQWYEIQAYRALNQALGRCIRHRNDWGALILVDDRFRNNPSRYISGLSKWVRQQIQHHSTFESALESLAEFSKKHQKVLNVSIKDRTNIQDNESTLEVTSLKYSTPPYLLEAASHLSPENFVEDEAKICVQELQCPKIITKNSPLPSSIISRKEKNDPVFLEEAGKAEKIVISRSTSPTFNKQTKRVSWSSFNSLGQYFTGKIPKATPELGSSENSASSPPRFKTEKMESKTVLPFTDKCESSNLTVNTSFGSCPQSETIISSLKIDATLTRKNHSEHPLCSEEALDPDIELSLVSEEDKQSTSNRDFETEAEDESIYFTPELYDPEDTDEEKNDLAETDRGNRLANNSDCILAKDLFEIRTIKEVDSAREVKAEDCIDTKLNGILHIEESKIDDIDGNVKTTWINELELGKTHEIEIKNFKPSPSKNKGMFPGFK
modifications: GST tag
effect of lithium chloride (inhibiting G4 formation) on protein binding [2]: weakened binding

B2: DHX36: GST-tagged human DHX36/G4R1/MLEL1 helicase (protein, listed as Homo sapiens)
chain: MSYDYHQNWGRDGGPRSSGGGYGGGPAGGHGGNRGSGGGGGGGGGGRGGRGRHPGHLKGREIGMWYAKKQGQKNKEAERQERAVVHMDERREEQIVQLLNSVQAKNDKESEAQISWFAPEDHGYGTEVSTKNTPCSENKLDIQEKKLINQEKKMFRIRNRSYIDRDSEYLLQENEPDGTLDQKLLEDLQKKKNDLRYIEMQHFREKLPSYGMQKELVNLIDNHQVTVISGETGCGKTTQVTQFILDNYIERGKGSACRIVCTQPRRISAISVAERVAAERAESCGSGNSTGYQIRLQSRLPRKQGSILYCTTGIILQWLQSDPYLSSVSHIVLDEIHERNLQSDVLMTVVKDLLNFRSDLKVILMSATLNAEKFSEYFGNCPMIHIPGFTFPVVEYLLEDVIEKIRYVPEQKEHRSQFKRGFMQGHVNRQEKEEKEAIYKERWPDYVRELRRRYSASTVDVIEMMEDDKVDLNLIVALIRYIVLEEEDGAILVFLPGWDNISTLHDLLMSQVMFKSDKFLIIPLHSLMPTVNQTQVFKRTPPGVRKIVIATNIAETSITIDDVVYVIDGGKIKETHFDTQNNISTMSAEWVSKANAKQRKGRAGRVQPGHCYHLYNGLRASLLDDYQLPEILRTPLEELCLQIKILRLGGIAYFLSRLMDPPSNEAVLLSIRHLMELNALDKQEELTPLGVHLARLPVEPHIGKMILFGALFCCLDPVLTIAASLSFKDPFVIPLGKEKIADARRKELAKDTRSDHLTVVNAFEGWEEARRRGFRYEKDYCWEYFLSSNTLQMLHNMKGQFAEHLLGAGFVSSRNPKDPESNINSDNEKIIKAVICAGLYPKVAKIRLNLGKKRKMVKVYTKTDGLVAVHPKSVNVEQTDFHYNWLIYHLKMRTSSIYLYDCTEVSPYCLLFFGGDISIQKDNDQETIAVDEWIVFQSPARIAHLVKELRKELDILLQEKIESPHPVDWNDTKSRDCAVLSAIIDLIKTQEKATPRNFPPRFQDGYYS
modifications: GST tag
notes: GST-tagged human DHX36/G4R1/MLEL1 helicase
effect of lithium chloride (inhibiting G4 formation) on protein binding [2]: weakened binding
